Assay results: patent US4103005A, “Novel-enkephalin analogs” (Hoffmann-La Roche Inc., priority 1977, dated 1978)
Where a SMILES comes first, the peptide text is derived from it. [ ]: non-standard residue; d: D form. Thz = O=C(O)[C@@H]1CSCN1

What was measured:
male ICR mice [1] = test: Analgesic assay by the tail-flick method in mice; format: in vivo; details: for Intracerebroventricular AD50 (median antinociceptive dose) / Intravenous AD50 (median antinociceptive dose) / Intracerebroventricular potency ratio / Intravenous potency ratio: mice; for Intracerebroventricular AD50 (median antinociceptive dose): intracerebroventricular (central) injection; for Intracerebroventricular AD50 (median antinociceptive dose) / Intravenous AD50 (median antinociceptive dose): tail-flick; for Intravenous AD50 (median antinociceptive dose): intravenous injection via tail vein; for Intracerebroventricular potency ratio / Intravenous potency ratio: relative to morphine sulfate = 1, molar basis; for Tail-flick inhibition after intravenous injection: 1.1 to 8.5 mg/kg injected intravenously; for Effect of naloxone pretreatment on inhibition of the tail-flick response: Naloxone HCl 3 mg/kg subcutaneously 5 min before the analog; for Tail-flick inhibition after central application: doses 0.17 to 0.85 μg (D-Met analog) and 0.011 to 0.085 μg (D-Thr analog); for Analgesic activity (summary statement): mouse, in vivo
Description: For analgesic assay, male ICR mice weighing 25-30 g were used in all the experiments. The enkephalin analogs dissolved in saline were administered either centrally according to the method described by Haley and McCormick, Br. J. Pharmacol, 12, 12 (1957) or intravenously via the tail vein. The injection volume is 5 μl for central injection and 10 μl per gram body weight for intravenous injection. Naloxone HCl (3 mg/kg) was injected subcutaneously 5 min before the administration of enkephalin analogs. Analgesic activity was assayed by the tail-flick method of D'Amour and Smith, J. Pharmacol, Exp. Ther. 72, 74 (1941).
The percent of analgesia was calculated as [(T1 -T0)/(T2 -T0)] × 100, where a control latency (T0) was obtained from the mean of two latencies determined before drug injection; the test latencies (T1) were determined at various times after injection for each animal; the cutoff time (T2) for the tail-flick was 7 seconds. The median analgesic dose (AD50) and 95% confidence limits were calculated according to the method of Litchfield and Wilcoxon, J. Pharacol. Exp. Ther. 96, 99 (1949). The locomotor activity to the mice was measured with an electronic Fe 40 motility meter (Motron Produkter, Stockholm, Sweden). The detail of the experimental method has been described by Tseng et al., Nature (London) 263, 239 (1976).

male ICR mice [2] = details: cited from earlier work
[3] = cited from earlier work; for Analgesic activity reported in the literature: in vivo

Compound | Intracerebroventricular AD50 (median antinociceptive dose) (male ICR mice [1]) | Intravenous AD50 (median antinociceptive dose) (male ICR mice [1]) | Intracerebroventricular potency ratio (male ICR mice [1]) | Intravenous potency ratio (male ICR mice [1]) | also measured
CN1CC[C@]23c4c5ccc(O)c4O[C@H]2[C@@H](O)C=C[C@H]3[C@H]1C5.O=S(=O)(O)O [Morphine sulfate, reference compound] | 1.11 nmole/mouse | 11.4 µmol/kg | – | – | –
D-Ala^2,D-Leu^5 -Enkephalin [reference compound] | 0.035 nmole/mouse | – | 31.7 | – | –
C[C@H](O)[C@@H](NC(=O)[C@@H](N)Cc1ccc(O)cc1)C(=O)NCC(=O)N[C@@H](Cc1ccccc1)C(=O)N1CSC[C@H]1C(N)=O [D-Thr^2,Thz^5 -Enkephalinamide, H-Tyr-D-Thr-Gly-Phe-Thz-NH2] (H-Y[dT]GF[Thz]-NH2) | 0.04 nmole/mouse | 2.40 µmol/kg | 27.1 | 4.8 | Tail-flick inhibition after intravenous injection (male ICR mice [1]): active in inhibiting the tail-flick response; Effect of naloxone pretreatment on inhibition of the tail-flick response (male ICR mice [1]): blocked by the pretreatment of naloxone; Potency, times more potent than [D-Met^2, Thz^5 ]-enkephalinamide (male ICR mice [1]; applied centrally): 3.5 times; Tail-flick inhibition after central application (male ICR mice [1]; applied centrally): dose-related increase in intensity and duration of the tail-flick inhibition; Duration of analgesia (male ICR mice [1]; intravenous injection): longer than that produced by [D-Met^2,Thz^5 ]-enkephalinamide; Analgesic activity (summary statement) (male ICR mice [1]): potent analgesic agents
βc -Endorphin (YGGFMTSEKSQTPLVTLFKNAIIKNAHKKGQ; Beta-endorphin; UniProt P01203 1-31, looked up) [reference compound] | 0.032 nmole/mouse | 2.7 µmol/kg | 34.7 | 4.2 | Locomotor activity (previously shown) (male ICR mice [2]): stimulate locomotor activity weakly or not at all
D-Ala^2, MePhe^4, Met-O^5 -ol enkephalin | – | – | – | – | Analgesic activity reported in the literature [3]: most potent analgesic of the group; Oral activity reported in the literature ([3]; oral): orally active
[D-Met^2, Pro^5 ]-enkephalinamide | – | – | – | – | Analgesic activity reported in the literature [3]: potent analgesic agent
CSCC[C@@H](NC(=O)[C@@H](N)Cc1ccc(O)cc1)C(=O)NCC(=O)N[C@@H](Cc1ccccc1)C(=O)N1CSC[C@H]1C(N)=O [D-Met^2,Thz^5 -Enkephalinamide, H-Tyr-D-Met-Gly-Phe-Thz-NH2] (H-Y[dM]GF[Thz]-NH2) | 0.145 nmole/mouse | 2.71 µmol/kg | 7.7 | 4.2 | Tail-flick inhibition after intravenous injection (male ICR mice [1]): active in inhibiting the tail-flick response; Effect of naloxone pretreatment on inhibition of the tail-flick response (male ICR mice [1]): blocked by the pretreatment of naloxone; AD50, times higher than [D-Thr^2,Thz^5 ]-enkephalinamide (male ICR mice [1]; applied centrally): 3.5 times; Tail-flick inhibition after central application (male ICR mice [1]; applied centrally): dose-related increase in intensity and duration of the tail-flick inhibition; Analgesic activity (summary statement) (male ICR mice [1]): potent analgesic agents
Met-enkephalin [reference compound] | > 174 nmole/mouse | > 60 µmol/kg | < 0.006 | < 0.19 | –
